Measured values taken from PMC11325505, “Nitrogen-Containing Flavonoids—Preparation and Biological Activity” (ACS Omega, 2024).
In brackets after ≈: the same amount, converted by molar mass.

Legend:
[1] = tested on: tumor necrosis factor (TNF-α) production by RAW 264.7 stimulated by LPS; assay: Anti-inflammatory activity: TNF-α production by LPS-stimulated macrophages; format: cell-based, Murine; settings: Mus musculus, RAW264.7; LPS-stimulated RAW 264.7; average of four repetitions ± SEM; read-out: TNFα production IC50
Protocol: (§1) The anti-inflammatory activity of flavonoids was evaluated as their ability to decrease the production of signaling molecules that mediate inflammation, such as nitric oxide (NO), tumor necrosis factor (TNF-α), and interleukin 6 (IL-6), in LPS-stimulated macrophages.
(§2) The anti-inflammatory activity of the tested flavonoids was determined as the ability to reduce the production of nitric oxide (NO), tumor necrosis factor (TNF-α), and interleukin 6 (IL-6) by RAW 264.7 stimulated by LPS, as previously described.[39],[40] Briefly, 1 × 10^6 cells/mL was seeded into the 96-well plate (100 μL/well). After 48 h, LPS (100 ng/mL) and the samples (3–100 μM) were added to the MEM medium. After 24 h, the medium was mixed with Griess reagent (0.04 g/mL) at a 1:1 ratio. The absorbance was measured after 15 min at 540 nm. Cell viability was determined using the resazurin assay.
To determine TNF-α levels, cells were precultivated with the tested compounds for 24 h. After 2 h of incubation with LPS, the medium was diluted 1:10 with ELISA diluent. To determine the level of IL-6, cells were cultivated for 6 h with LPS and the tested compounds. Cytokine production was determined using an uncoated ELISA performed according to the manufacturer’s instructions.

MRSA 1584 = assay: Mode of antimicrobial action with gentamicin, aac(6')/aph(2')-positive strain; format: cell-based, Staphylococcus aureus
Text: Among the mechanisms of resistance to gentamicin previously described in S. aureus, the presence of enzymes that alter the structure of aminoglycosides is crucial. These enzymes can transfer nucleotides, phosphates, or acetyls to various −OH or −NH2 groups of gentamicin, preventing its subsequent interaction with the cellular target, i.e., the 30S ribosomal subunit. The bifunctional aminoglycoside-modifying enzyme with acetylation and phosphotransferase activities encoded by the gene aac(6’)/aph(2’), 4′,4″ adenyltransferase encoded by the aadD gene, and aminoglycoside O-phosphotransferase encoded by the gene aph(3′) are the most important.[37] […] For this reason, further testing continued using strains MRSA 3596 and MRSA 1584, which inactivate gentamicin only by a single mechanism (aadD and aac(6’)-aph(2’’), respectively).
(§3) Sensitization of multidrug-resistant clinical bacterial strains was performed according to ref[15]. Antibiotic cutoff concentration was chosen according to the European Committee on Antimicrobial Susceptibility Testing (EUCAST, Clinical breakpoints–bacteria, ver. 11.0). The 200 μM concentration of the derivatives was chosen as the highest test concentration. The absorbance detected at 600 nm was then used to estimate the number of viable cells after 24 h of incubation at 37 °C and 120 rpm.
(§4) Experiments were performed with the respective number of replicates indicated in each figure/table. MIC was determined as IC70. Both IC70 and IC50 values were calculated using the following nonlinear regression in the software GraphPad Prism: […]

S. aureus MRSA 9 = assay: Antibacterial activity, multidrug-resistant strain; format: cell-based; settings: Staphylococcus aureus, MRSA; multidrug-resistant strain; three repetitions ± SEM
Protocol: To evaluate the ability to modulate bacterial resistance, the tested flavonoids themselves cannot exert antimicrobial activity; therefore, the nontoxic concentration was used, as indicated in Table S5. Clinically relevant antibiotics were selected at breakpoint concentrations for susceptibility testing according to the European Committee on Antimicrobial Susceptibility Testing (EUCAST, version 11.0). […] Flavonoids and their derivatives (from 1 μM to the highest nontoxic concentration) were used in combination with the breakpoint concentration of the antibiotics. After coincubation, the minimum inhibitory concentration (MIC) of flavonoids inhibiting the visible growth of bacteria was determined (Table 2).
as §3, §4

[2] = tested on: Methicilin-Resistant S. aureus 331 Strain; assay: Mode of antimicrobial action with erythromycin, ermC-positive strain; format: cell-based
Text: Erythromycin is a macrolide antibiotic that inhibits proteosynthesis by binding to the 50S subunit of the ribosome. In Staphylococcus species, resistance to erythromycin is associated with the presence of methyltransferases (encoded by erm genes) that alter the ribosomal target site. Another typical mechanism of resistance to erythromycin is the presence of an ATP-dependent efflux pump encoded by the msr(A) gene or a major facilitator superfamily (MFS) pump encoded by the lmrS gene. Both efflux pumps reduce the concentration of erythromycin in the cell below the therapeutic dose by transporting it across the membrane to the extracellular space. Another erythromycin resistance gene is the mph(C) gene, the product of which is a phosphotransferase that alters the structure of macrolide antibiotics. To elucidate the mechanism of erythromycin resistance modulation in S. aureus, further tests were performed with the strains MRSA 331 and MRSA 3596, which inactivate erythromycin via a single mechanism (ermC and ermA, respectively). […] Therefore, if the activity was not strain-specific, it would be necessary to consider the effect of the derivatives on this pump (Table 3).
as §3, §4

RAW 264.7 cells = assay: Cellular antioxidant activity (CAA); format: cell-based, Murine; settings: Mus musculus, RAW264.7, macrophages RAW 264.7; average of four repetitions ± standard error of the mean
Protocol: To evaluate the antioxidant activity of the prepared derivatives and the respective parent compounds, cellular antioxidant activity (CAA) was measured in macrophages. Compared to other in vitro antioxidant assays, this method provides partial information about the uptake and metabolism of the compounds, because, in this assay, they must first enter the cell to exert antioxidant activity.[31] […] Derivatization of quercetin at C-8 with 4-fluoroaniline (5) increased the antioxidant activity of quercetin by 1.7-fold. […] The concentration of these derivatives required to halve the cellular radicals decreased 1.5-fold compared to luteolin.
Cellular antioxidant capacity was evaluated as previously described.[31],[39] Briefly, 100 μL of RAW 264.7 cells with a density corresponding to 1 × 10^6 cells/mL were split into 96-well plates. After 24 h, cells were washed with PBS, and DMEM supplemented with DCFH-DA (0.0125 mg/mL) was added to each well together with the tested samples in the concentration range of 1.5–200 μM. After 1 h incubation in a CO2 incubator, the medium was replaced with AAPH solution (0.16 mg/mL in PBS), and fluorescence was immediately recorded (ex./em. 485/540 nm) for 2 h in 5 min intervals.

[3] = tested on: nitric oxide (NO) production by RAW 264.7 stimulated by LPS; assay: Anti-inflammatory activity: NO production by LPS-stimulated macrophages; format: cell-based, Murine; settings: Mus musculus, RAW264.7; LPS-stimulated RAW 264.7; average of four repetitions ± SEM
Protocol: as §1, §2

O=c1cc(-c2ccc(O)c(O)c2)oc2c(Nc3ccc(F)cc3)c(O)cc(O)c12 [compound 11, 2-(3,4-Dihydroxyphenyl)-8-(4-fluoroanilino)-5,7-dihydroxy-4H–1-benzopyran-4-one]
IC50 [1]: 28.4 ± 0.2 µM | effect (mode of action with gentamicin) (MRSA 1584; MRSA 1584): additive (> 0.5-1 indicates additive effects) | MIC, Gentamicin [1 mg/L] yes (MRSA 1584; MRSA 1584 (aac(6')/aph(2')), with gentamicin 1 mg/L): 15.7 ± 0.9 µM (≈ 6.21 µg/mL) | FIC (Fractional Inhibitory Concentration Index) (MRSA 1584; MRSA 1584, with gentamicin): 0.65 ± 0.06 | MIC (MRSA 1584; Staphylococcus aureus, 24 h, read-out: MIC, Gentamicin [1 mg/L] no, MRSA 1584, without gentamicin): 24.1 ± 0.7 µM (≈ 9.53 µg/mL) | IC50 (S. aureus MRSA 9): 38 ± 1.2 µM | MIC, erythromycin [1 mg/L] yes ([2]; MRSA 331 (ermC), with erythromycin 1 mg/L): 57.4 ± 0.2 µM (≈ 22.7 µg/mL) | MIC, erythromycin [1 mg/L] no ([2]; MRSA 331 (ermC), without erythromycin): 57.6 ± 0.2 µM (≈ 22.8 µg/mL) | FIC (Fractional Inhibitory Concentration Index) ([2]; MRSA 331, with erythromycin): 1.00 ± 0.01 | IC50 (RAW 264.7 cells): 2.9 ± 0.2 µM | IC50 [3]: > 25 µM
